Data on 18 molecules can be found in patent US20260199497A1, “GLUCOCORTICOID RECEPTOR AGONIST AND CONJUGATE THEREOF” (priority 2023, published 2026).

A word on the EC50: it is the midpoint of the concentration-response curve. Lower therefore signals higher potency in that assay. As a reminder, the Emax is the maximal effect, on the per cent scale that the assay sets.

For assay [1], the target named is T1, glucocorticoid receptor (Homo sapiens, UniProt P04150).
T1 sequence (P04150 524-777 limits assumed): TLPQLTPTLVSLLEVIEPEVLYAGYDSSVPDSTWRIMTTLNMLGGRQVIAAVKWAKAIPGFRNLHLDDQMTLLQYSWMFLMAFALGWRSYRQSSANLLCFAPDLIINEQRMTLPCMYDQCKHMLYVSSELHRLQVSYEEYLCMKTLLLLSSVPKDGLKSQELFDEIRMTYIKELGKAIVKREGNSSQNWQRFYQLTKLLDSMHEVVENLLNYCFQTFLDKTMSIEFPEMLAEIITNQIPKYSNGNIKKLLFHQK
Nature of the assay: GRE reporter gene test (Experiment Example 1), HEK293T cells transfected with pGL4.35 and p-Bind GR Vector. The assay is classed as cell-based. To be noted: for EC50: GRE reporter gene, HEK293T cells, 18-20 h incubation; for Emax: HEK-293T, read-out: Emax; for maximum agonistic effect (Emax): compared with dexamethasone, transfected HEK293T cells. How it is done: The compound of the present invention to be tested was formulated into a 10 mM solution with DMSO, and then subjected to 4-fold dilution at 10 concentration points using DMSO to obtain a 1000× mother liquor, with a final test concentration of 0.000038-10 μM.
(§1) HEK293T cells (ATCC) were plated in a 100 mm culture dish at a density of 6*10^6 cells/culture dish, and cultured for 16 h under the conditions of 37° C. and 5% CO2. Plasmids (pGL4.35 [luc2P/9XGAL4 UAS/Hygro], p-Bind GR Vector, Promega) and Lipofectamine® 3000 (Invitrogen) were mixed, added into the culture dish, and then incubated for 5-6 h under the conditions of 37° C. and 5% CO2.
In a 384-well plate (PerkinElmer), 25 nL of the compound mother liquor was added, and then HEK293T cells transfected with plasmids were added at a density of 18000 cells/well. The cells were incubated for 18-20 h under the conditions of 37° C. and 5% CO2.
After the incubation was ended, 25 μL of britelite plus luciferase assay reagent (PerkinElmer) was added, and then reading was performed using an Envision 2105 multiplate reader (PerkinElmer).
(§2) The activity was calculated using the following formula, % activity=100*(signal of compound well−average signal of negative control well)/(average signal of positive control well−average signal of negative control well). […] Fitting calculation of EC50 was performed on % activity and the logarithmic concentration of the compound using Graphpad 8.0, Y=Bottom+(Top−Bottom)/(1+10^((Log EC50−X)*HillSlope)), wherein Y is % activity, and X is the logarithmic concentration of the compound.
A general note: In a reporter assay the amount or activity of a reporter protein is the signal.

Assay [2] deals with T1, glucocorticoid receptor. Description: GRE reporter gene test (Experiment Example 2), HEK293T cells transfected with pGL4.35 and p-Bind GR Vector. The assay is classed as cell-based. To be noted: for EC50: GRE reporter gene, HEK293T cells, 18-20 h incubation; for Emax: HEK-293T; for maximum agonistic activity (Emax): compared with dexamethasone, transfected HEK293T cells. How it is done: The compound of the present invention to be tested was formulated into a 1 mM solution with DMSO, and then subjected to 4-fold dilution at 10 concentration points using DMSO to obtain a 1000× mother liquor, with a final test concentration of 0.0000038-1 μM.
as §1
In a 384-well plate (PerkinElmer), 25 nL of the compound mother liquor was added, and then HEK293T cells transfected with plasmids were added at a density of 18000 cells/well (25 μL). The cells were incubated for 18-20 h under the conditions of 37° C. and 5% CO2.
After the incubation was ended, 25 μL of britelite plus luciferase assay reagent (PerkinElmer) was added, and then reading was performed using an Envision 2105 multimode reader (PerkinElmer).
as §2

Take `C[C@@H]1C[C@H]2[C@@H]3C[C@H](F)C4=CC(=O)C=C[C@]4(C)[C@@]3(F)[C@@H](O)C[C@]2(C)[C@@]1(OC(=O)c1ccccc1O)C(=O)SCF` [B-25]: on glucocorticoid receptor [1], the EC50 was found to be 0.13 nM and the Emax amounted to 85.6%.
`C[C@]12C=CC(=O)C=C1[C@@H](F)C[C@H]1[C@@H]3CC[C@](OC(=O)c4cc(CO)co4)(C(=O)SCF)[C@@]3(C)C[C@H](O)[C@@]12F` [F-10]: on glucocorticoid receptor [2], a half-maximal effect (EC50) was put at 0.6 nM, the Emax came to 150% and the “maximum agonistic activity (Emax)” value is listed as “superior to dexamethasone”.
Consider `CC(O)CC(=O)O[C@]1(C(=O)SCF)[C@H](C)C[C@H]2[C@@H]3C[C@H](F)C4=CC(=O)C=C[C@]4(C)[C@@]3(F)[C@@H](O)C[C@@]21C` (stereo partly drawn) [D-11], for which, at glucocorticoid receptor [2], the response was half-maximal at 0.8 nM (EC50), the Emax amounted to 115% and the “maximum agonistic activity (Emax)” value is reported as “superior to dexamethasone”.
For the molecule `C[C@]12C=CC(=O)C=C1[C@@H](F)C[C@H]1[C@@H]3CC[C@](OC(=O)/C=C/c4ccc(F)c(N)c4)(C(=O)SCF)[C@@]3(C)C[C@H](O)[C@@]12F` [E-4], at glucocorticoid receptor [2], the midpoint of the response, the EC50, lay at 1 nM and the Emax was 84.8%.
For `C[C@]12C=CC(=O)C=C1CC[C@H]1[C@@H]3CC[C@](OC(=O)c4ccc(F)c(N)c4)(C(=O)SCF)[C@@]3(C)C[C@H](O)[C@@]12F` [A-2], in that order: 1.7 nM and 93.7%.
For `C[C@@H]1C[C@H]2[C@@H]3C[C@H](F)C4=CC(=O)C=C[C@]4(C)[C@@]3(F)[C@@H](O)C[C@]2(C)[C@@]1(OC(=O)c1cccc(CO)c1)C(=O)SCF` [B-35, (6S,8S,9R,10S,11S,13S,14S,16R,17R)-6,9-difluoro-17-(((fluoromethyl)thio)carbonyl)-11-hydroxy-10,13,16-trimethyl-3-oxo-6,7,8,9,10,11,12,13,14,15,16,17-dodecahydro-3H-cyclopenta[a]phenanthren-17-yl 3-(hydroxymethyl)benzoate], in that order: 2.4 nM and 66.2%.
Regarding `C[C@@H]1C[C@H]2[C@@H]3C[C@H](F)C4=CC(=O)C=C[C@]4(C)[C@@]3(F)[C@@H](O)C[C@]2(C)[C@@]1(OC(=O)C[C@@H](C)O)C(=O)SCF` [D-19, (6S,8S,9R,10S,11S,13S,14S,16R,17R)-6,9-difluoro-17-(((fluoromethyl)thio)carbonyl)-11-hydroxy-10,13,16-trimethyl-3-oxo-6,7,8,9,10,11,12,13,14,15,16,17-dodecahydro-3H-cyclopenta[a]phenanthren-17-yl (R)-3-hydroxybutyrate], on glucocorticoid receptor [2], the EC50 stood at 1.2 nM, the Emax was determined as 120% and the “maximum agonistic activity (Emax)” value is given as “superior to dexamethasone”.
For `C[C@@H]1C[C@H]2[C@@H]3C[C@H](F)C4=CC(=O)C=C[C@]4(C)[C@@]3(F)[C@@H](O)C[C@]2(C)[C@@]1(OC(=O)c1ccc(O)cc1)C(=O)SCF` [B-13], on glucocorticoid receptor [1], a half-maximal effect (EC50) was put at 0.27 nM and the Emax turned out to be 100%.
As for `C[C@@H]1C[C@H]2[C@@H]3C[C@H](F)C4=CC(=O)C=C[C@]4(C)[C@@]3(F)[C@@H](O)C[C@]2(C)[C@@]1(OC(=O)c1cc(CO)co1)C(=O)SCF` [F-9, (6S,8S,9R,10S,11S,13S,14S,16R,17R)-6,9-difluoro-17-(((fluoromethyl)thio)carbonyl)-11-hydroxy-10,13,16-trimethyl-3-oxo-6,7,8,9,10,11,12,13,14,15,16,17-dodecahydro-3H-cyclopenta[a]phenanthren-17-yl 4-(hydroxymethyl)furan-2-carboxylate], at glucocorticoid receptor [2], the concentration giving a half-maximal response (EC50) came out at 0.4 nM, the Emax came out at 134% and the “maximum agonistic activity (Emax)” value is “superior to dexamethasone”.
For `C[C@@H]1C[C@H]2[C@@H]3C[C@H](F)C4=CC(=O)C=C[C@]4(C)[C@@]3(F)[C@@H](O)C[C@]2(C)[C@@]1(OC(=O)c1ccc(F)c(N)c1)C(=O)OCF` [O-1, fluoromethyl (6S,8S,9R,10S,11S,13S,14S,16R,17R)-17-((3-amino-4-fluorobenzoyl)oxy)-6,9-difluoro-11-hydroxy-10,13,16-trimethyl-3-oxo-6,7,8,9,10,11,12,13,14,15,16,17-dodecahydro-3H-cyclopenta[a]phenanthrene-17-carboxylate], on glucocorticoid receptor [1], the EC50 was 0.2 nM and the Emax was 87.3%.
As to `C[C@@H]1C[C@H]2[C@@H]3C[C@H](F)C4=CC(=O)C=C[C@]4(C)[C@@]3(F)[C@@H](O)C[C@]2(C)[C@@]1(OC(=O)/C=C/c1ccc(F)c(N)c1)C(=O)SCF` [E-3], on glucocorticoid receptor [1], the midpoint of the response, the EC50, lay at 1.2 nM and the Emax was 97.2%.
At glucocorticoid receptor [2], `C[C@@H]1C[C@H]2[C@@H]3C[C@H](F)C4=CC(=O)C=C[C@]4(C)[C@@]3(F)[C@@H](O)C[C@]2(C)[C@@]1(OC(=O)c1ccc(CO)cc1)C(=O)SCF` [B-31, (6S,8S,9R,10S,11S,13S,14S,16R,17R)-6,9-difluoro-17-(((fluoromethyl)thio)carbonyl)-11-hydroxy-10,13,16-trimethyl-3-oxo-6,7,8,9,10,11,12,13,14,15,16,17-dodecahydro-3H-cyclopenta[a]phenanthren-17-yl 4-(hydroxymethyl)benzoate] came in with a 50% effective concentration (EC50) of 0.32 nM and an Emax of 92.5%.
Turning to `C[C@@H]1C[C@H]2[C@@H]3C[C@H](F)C4=CC(=O)C=C[C@]4(C)[C@@]3(F)[C@@H](O)C[C@]2(C)[C@@]1(OC(=O)c1cc(N)co1)C(=O)SCF` [F-2, (6S,8S,9R,10S,11S,13S,14S,16R,17R)-6,9-difluoro-17-(((fluoromethyl)thio)carbonyl)-11-hydroxy-10,13,16-trimethyl-3-oxo-6,7,8,9,10,11,12,13,14,15,16,17-dodecahydro-3H-cyclopenta[a]phenanthren-17-yl 4-aminofuran-2-carboxylate], on glucocorticoid receptor [1], a half-maximal response (EC50) required 1.2 nM, the Emax stood at 125% and the “maximum agonistic effect (Emax)” value is “superior to dexamethasone”.
On glucocorticoid receptor [2], `C[C@@H]1C[C@H]2[C@@H]3C[C@H](F)C4=CC(=O)C=C[C@]4(C)[C@@]3(F)[C@@H](O)C[C@]2(C)[C@@]1(OC(=O)c1ccc(CO)o1)C(=O)SCF` [F-13, (6S,8S,9R,10S,11S,13S,14S,16R,17R)-6,9-difluoro-17-(((fluoromethyl)thio)carbonyl)-11-hydroxy-10,13,16-trimethyl-3-oxo-6,7,8,9,10,11,12,13,14,15,16,17-dodecahydro-3H-cyclopenta[a]phenanthren-17-yl 5-(hydroxymethyl)furan-2-carboxylate] had an EC50 of 1.3 nM and an Emax of 104%.
With `C[C@@H]1C[C@H]2[C@@H]3C[C@H](F)C4=CC(=O)C=C[C@]4(C)[C@@]3(F)[C@@H](O)C[C@]2(C)[C@@]1(OC(=O)[C@H]1C[C@@H]1c1ccc(N)cc1)C(=O)SCF` [C-1], at glucocorticoid receptor [1], the midpoint of the response, the EC50, lay at 0.9 nM; the Emax turned out to be 102%; the “maximum agonistic effect (Emax)” value is listed as “superior to dexamethasone”.
As to `C[C@@H]1C[C@H]2[C@@H]3C[C@H](F)C4=CC(=O)C=C[C@]4(C)[C@@]3(F)[C@@H](O)C[C@]2(C)[C@@]1(OC(=O)c1ccnc(N)c1)C(=O)SCF` [P-1, (6S,8S,9R,10S,11S,13S,14S,16R,17R)-6,9-difluoro-17-(((fluoromethyl)thio)carbonyl)-11-hydroxy-10,13,16-trimethyl-3-oxo-6,7,8,9,10,11,12,13,14,15,16,17-dodecahydro-3H-cyclopenta[a]phenanthren-17-yl 2-aminoisonicotinate], at glucocorticoid receptor [1], the EC50 is 1.4 nM and the Emax came to 91.2%.
For `CC(O)C(=O)O[C@]1(C(=O)SCF)[C@H](C)C[C@H]2[C@@H]3C[C@H](F)C4=CC(=O)C=C[C@]4(C)[C@@]3(F)[C@@H](O)C[C@@]21C` (stereo partly drawn) [D-9], at glucocorticoid receptor [2], the EC50 came to 3.6 nM, the Emax is 146% and the “maximum agonistic activity (Emax)” value is “superior to dexamethasone”.
On to `C[C@@H]1C[C@H]2[C@@H]3C[C@H](F)C4=CC(=O)C=C[C@]4(C)[C@@]3(F)[C@@H](O)C[C@]2(C)[C@@]1(OC(=O)c1ccco1)C(=O)SCCO` [F-21, (6S,8S,9R,10S,11S,13S,14S,16R,17R)-6,9-difluoro-11-hydroxy-17-((2-hydroxyethyl)thio)carbonyl-10,13,16-trimethyl-3-oxo-6,7,8,9,11,12,13,14,15,16,17-dodecahydro-3H-cyclopenta[a]phenanthren-17-yl furan-2-carboxylate], for which, on glucocorticoid receptor [2], the EC50 amounted to 1.3 nM, the Emax stood at 139% and the “maximum agonistic activity (Emax)” value is listed as “superior to dexamethasone”.
